Assays:
[1] = biological target: T1, human sphingosine kinase (huSPHK1) (Homo sapiens, UniProt Q9NYA1); test: Sphingosine kinase activity scintillation proximity assay (SPA) with extracts of transfected CHO or COS-7 cells; assay type: biochemical; settings: FIG. 4B; read-out: ATP KM
T1 construct: made in house; host or cells: CHO and/or COS-7 cells, transiently transfected; raw cell extract after thaw/freeze cycles
Protocol: CHO and/or COS-7 cells were cultured in 90% Ham F12 medium, 10% foetal bovine serum, Gentamycin, in T-175 tissue culture flasks in air with 5% CO2 atmosphere at 37° C. CHO and/or COS-7 cells were transiently transfected with the vector pcDNA3 alone or vector containing the human sphingosine kinase cDNA, using the Qiagen reagent Superfect. They were seeded 5×10^6 per 175 cm^2 flask. After 24 hrs, cells were transfected with 10 μg of cDNA mixed with 20 μl Superfect for 6 hrs, washed, and cultured for 2 days in complete Ham medium. They were then trypsinized, centrifuged down at 1500 rpm for 10 min, and resuspended in assay buffer. They underwent 3 thaw/freeze cycles and protein concentration were estimated using the Bradfaord technique (Biorad kit). The protein concentration was adjusted to 1 μg/μl, and aliquots were kept frozen at −20° C. […]
100 μL/well of SPA beads emulsion (corresponding to 0.5 mg/well beads). The plate is covered with a transparent Topseal (Packard), stirred for 1 hour at 800 rpm and counted on a Wallac Trilux. […]
Taking advantage of the property of these supports, a two-steps assay was set up (see FIG. 1). […] The beads settle down for an hour, and the plate is read on a scintillation counter.
Optimization of assay conditions need also the determination of adequate quantities of ATP, sphingosine, and enzyme concentration. […]

[2] = biological target: sphingosine kinases (SPHKs) (Homo sapiens, UniProt Q9NYA1); settings: cited from earlier work
Chain of sphingosine kinases (SPHKs) (Q9NYA1 whole entry): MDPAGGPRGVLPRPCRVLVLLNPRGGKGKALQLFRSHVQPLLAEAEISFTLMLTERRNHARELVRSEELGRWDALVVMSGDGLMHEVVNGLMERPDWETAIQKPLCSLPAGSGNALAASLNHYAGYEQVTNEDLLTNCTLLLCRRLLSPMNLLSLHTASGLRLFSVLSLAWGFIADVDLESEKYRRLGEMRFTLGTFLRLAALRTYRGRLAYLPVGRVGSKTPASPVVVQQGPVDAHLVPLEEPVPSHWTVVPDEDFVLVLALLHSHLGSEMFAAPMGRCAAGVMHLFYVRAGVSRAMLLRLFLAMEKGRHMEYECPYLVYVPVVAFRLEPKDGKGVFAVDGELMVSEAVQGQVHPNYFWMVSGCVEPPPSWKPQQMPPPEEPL

T1 sequence (Q9NYA1 whole entry): as above

Row | Km [1] | SMILES | Km [2]
1 | ~30 µM | Nc1ncnc2c1ncn2[C@@H]1O[C@H](COP(=O)(O)OP(=O)(O)OP(=O)(O)O)[C@@H](O)[C@H]1O [ATP] | 
2 |  | CCCCCCCCCCCCC/C=C/[C@@H](O)[C@@H](N)CO [Sphingosine] | 5 µM

— patent US6723525B2, “Methods and compositions for screening modulators of lipid kinases” (Warner-Lambert Company, priority 2000, dated 2004)
